Source: US20260125360A1, “HERBICIDAL IMIDAZOLE COMPOUNDS” (SYNGENTA CROP PROTECTION AG, priority 2022, published 2026)

What was measured:
Assay type in all cases: in vivo
Conditions in all cases: 250 g/ha, evaluated after 13 days
[1] = system: Amaranthus palmeri (AMAPA); assay: Post-emergence herbicide glasshouse test
Procedure: (§1) Seeds of a variety of test species are sown in standard soil in pots Amaranthus palmeri (AMAPA), Amaranthus retoflexus (AMARE), Echinochloa crus-galli (ECHCG), Ipomoea hederacea (IPOHE)). After cultivation for one day (pre-emergence) or after 8 days cultivation (post-emergence) under controlled conditions in a glasshouse (at 24/16° C., day/night; 14 hours light; 65% humidity), the plants are sprayed with an aqueous spray solution derived from the formulation of the technical active ingredient in acetone/water (50:50) solution containing 0.5% Tween 20 (polyoxyethelyene sorbitan monolaurate, CAS RN 9005-64-5). Compounds are applied at 250 g/ha unless otherwise stated. The test plants are then grown in a glasshouse under controlled conditions in a glasshouse (at 24/16° C., day/night; 14 hours light; 65% humidity) and watered twice daily. After 13 days for pre and post-emergence, the test is evaluated for the percentage damage caused to the plant. The biological activities are shown in the following table on a five-point scale (5=81-100%; 4=61-80%; 3=41-60%; 2=21-40%; 1=0-20%).

[2] = system: Amaranthus retoflexus (AMARE); assay: Post-emergence herbicide glasshouse test
Procedure: as §1

[3] = system: Echinochloa crus-galli (ECHCG); assay: Post-emergence herbicide glasshouse test
Procedure: as §1

[4] = system: Ipomoea hederacea (IPOHE); assay: Post-emergence herbicide glasshouse test
Procedure: as §1

[5] = system: Amaranthus palmeri (AMAPA); assay: Pre-emergence herbicide glasshouse test
Procedure: as §1

[6] = system: Amaranthus retoflexus (AMARE); assay: Pre-emergence herbicide glasshouse test
Procedure: as §1

[7] = system: Echinochloa crus-galli (ECHCG); assay: Pre-emergence herbicide glasshouse test
Procedure: as §1

[8] = system: Ipomoea hederacea (IPOHE); assay: Pre-emergence herbicide glasshouse test
Procedure: as §1

Structure (SMILES)	percentage damage caused to the plant, AMAPA (five-point scale) [1]	percentage damage caused to the plant, AMARE (five-point scale) [2]	percentage damage caused to the plant, ECHCG (five-point scale) [3]	percentage damage caused to the plant, IPOHE (five-point scale) [4]	percentage damage caused to the plant, AMAPA (five-point scale) [5]	percentage damage caused to the plant, AMARE (five-point scale) [6]	percentage damage caused to the plant, ECHCG (five-point scale) [7]	percentage damage caused to the plant, IPOHE (five-point scale) [8]
Cc1nnc(Cn2cc(C(F)(F)F)nc2-c2ccc(F)c(F)c2)o1 [Compound 1.183]	5 (5=81-100%)	5 (5=81-100%)	2 (2=21-40%)	4 (4=61-80%)	5 (5=81-100%)	5 (5=81-100%)	3 (3=41-60%)	5 (5=81-100%)
Cc1nnc(Cn2cc(C(F)(F)F)nc2-c2cnc(Cl)c(F)c2)s1 [Compound 1.017]	5 (5=81-100%)	5 (5=81-100%)	2 (2=21-40%)	1 (1=0-20%)	5 (5=81-100%)	5 (5=81-100%)	4 (4=61-80%)	5 (5=81-100%)
Cn1cnc(Cn2cc(C(F)(F)F)nc2-c2ccc(S(C)(=O)=O)cc2)n1 [Compound 1.170]	5 (5=81-100%)	5 (5=81-100%)	2 (2=21-40%)	3 (3=41-60%)	5 (5=81-100%)	5 (5=81-100%)	4 (4=61-80%)	5 (5=81-100%)
Cn1cnc(Cn2cc(C(F)(F)F)nc2-c2cnc(F)c(Cl)c2)n1 [Compound 1.165]	5 (5=81-100%)	5 (5=81-100%)	5 (5=81-100%)	5 (5=81-100%)	5 (5=81-100%)	5 (5=81-100%)	5 (5=81-100%)	5 (5=81-100%)
FC(F)(F)c1cn(Cc2noc(C3CC3)n2)c(-c2ccc(Cl)nc2)n1 [Compound 1.125]	4 (4=61-80%)	5 (5=81-100%)	4 (4=61-80%)	5 (5=81-100%)	5 (5=81-100%)	5 (5=81-100%)	5 (5=81-100%)	5 (5=81-100%)
FC(F)c1cc(Cn2cc(C(F)(F)F)nc2-c2ccc(Cl)nc2)no1 [Compound 1.059]	5 (5=81-100%)	5 (5=81-100%)	5 (5=81-100%)	5 (5=81-100%)	5 (5=81-100%)	5 (5=81-100%)	5 (5=81-100%)	5 (5=81-100%)
FC(F)(F)c1ccc(-c2nc(C(F)(F)F)cn2Cc2nsc(Cl)n2)cc1 [Compound 1.002]	1 (1=0-20%)	2 (2=21-40%)	1 (1=0-20%)	3 (3=41-60%)	1 (1=0-20%)	–	1 (1=0-20%)	1 (1=0-20%)
Cc1nc(Cn2cc(C(F)(F)F)nc2-c2ccc(C(F)(F)F)cc2)co1 [Compound 1.012]	1 (1=0-20%)	1 (1=0-20%)	1 (1=0-20%)	3 (3=41-60%)	–	2 (2=21-40%)	1 (1=0-20%)	1 (1=0-20%)
